Ends that are not written are not given here. * marks the point of attachment. Octanoyl = CCCCCCCC(=O)*
Test system: gastrectomised rats
Experiment: Treatment of totally gastrectomised (vagotomised) rats with ghrelin analogue MK-0677 by gavage
Assay type: in vivo, rat
Method: Total gastrectomy was performed and followed by end-to-end anastomosis between the esophagus and the duodenum as described in Lehto-Axtelius D., et al. Osteopenia after gastrectomy, fundectomy or antrectomy: an experimental study in the rat., Regul. Pept. 78 (1998), 41-50. The gastrectomy was accompanied by total vagotomy at the level of cardia. Sham operation was performed by opening the abdomen and moving the stomach.
In sham gastrectomised rats the ghrelin levels were 2.06±0.22 ng/ml, while they were less than the least detectable level of the assay, i e, 0.25 ng/ml after gastrectomy. From four weeks after gastrectomy the animals were administered either water or the ghrelin analogue MK-0677 by gavage once daily (4 mg/kg/day).
Food intake and body weight was measured daily and throughout the experiment. […] After two weeks of treatment, the animals were decapitated and blood and tissues collected and rapidly frozen. Gonadal, mesenteric and retroperitoneal far pads were dissected and weighed, and the sum of the weight was then calculated. Ghrelin was measured in serum using a kit purchased from Phoenix Pharmaceuticals as described (Dornonville de la Cour, supra).

[1] = 4 mg/kg/day by gavage once daily, after two weeks of treatment, vs water

## CC(C)(N)C(=O)N[C@H](COCc1ccccc1)C(=O)N1CCC2(CC1)CN(S(C)(=O)=O)c1ccccc12 [MK677]
4 mg/kg/day by gavage once daily from four weeks after gastrectomy, two weeks of treatment, vs water
  body weight: increased
[1]
  hypothalamic levels of neuropeptide Y (NPY) mRNA: increased
  sum of dissected fat pad weights (gonadal, mesenteric and retroperitoneal): enhanced

## ghrelin: acylated peptide of 28 amino acids with an octanoyl ester attached to a serine residue (GSS(Octanoyl)FLSPEHQRVQQRKESKKPPAKLQPR; listed as Homo sapiens)
Treated once daily by gavage
  desire for food (food intake measured daily): increased
